In experiment [1] the test system is C57BL/6J mouse and knockout mice. Kind of experiment: NaCl palatability test, two-bottle choice method. As to conditions: for NaCl palatability: 96 hr.
Experimental: Thus, an NaCl palatability test was carried out by using the wild-type C57BL/6J mouse and the knockout mice obtained in Example 1.
The NaCl palatability test was carried out by the two-bottle choice method (abbreviated as “two-bottle method”) for 96 hr. That is, two 11-mL plastic bottles (water dispenser bottles) were filled with a test aqueous solution, moisture outside of the bottles was wiped out and dried, the weights thereof (the total weight of the bottle, a water dispenser tube made of stainless, and the aqueous solution, for each bottle) were measured, and the bottles were inserted into a metal lid of a breeding cage at an angle of approximately 30 degrees. […] The positions of the bottles were laterally interchanged every day. The weights of the bottles were measured every 24 hours, to calculate the reduced amounts of the aqueous solutions. Separately, four water dispenser bottles filled with deionized water were located on a vacant breeding cage, and changes of the weights were measured every day, to calculate an average value of the sum of the evaporation amount of the aqueous solution and the dropped amount of the aqueous solution due to experimental operation (approximately 0.05 g to 0.06 g). To prevent dropping of the aqueous solutions due to rocking of the lid of the breeding cage and the bottles by the mice, a transparent acryl board (10 cm×15 cm×1 cm, 180 g) was located on the bottles as a weight. The average value of the sum of the evaporation and dropped amounts of each aqueous solution was subtracted from the reduced amount of the same, and the resulting value was regarded as the intake amount of each aqueous solution. The ratio of the intake amount of the NaCl aqueous solution with respect to the total intake amount of the control aqueous solution and the NaCl aqueous solution was calculated and regarded as NaCl palatability.
In experiment [2] the target is T1, mouse TMC6 protein (Mus musculus, UniProt Q7TN60, A788T).
T1 construct: expressed in transfected cells; host or cells: CHO-K1
T1 sequence (Q7TN60 1-810 A788T): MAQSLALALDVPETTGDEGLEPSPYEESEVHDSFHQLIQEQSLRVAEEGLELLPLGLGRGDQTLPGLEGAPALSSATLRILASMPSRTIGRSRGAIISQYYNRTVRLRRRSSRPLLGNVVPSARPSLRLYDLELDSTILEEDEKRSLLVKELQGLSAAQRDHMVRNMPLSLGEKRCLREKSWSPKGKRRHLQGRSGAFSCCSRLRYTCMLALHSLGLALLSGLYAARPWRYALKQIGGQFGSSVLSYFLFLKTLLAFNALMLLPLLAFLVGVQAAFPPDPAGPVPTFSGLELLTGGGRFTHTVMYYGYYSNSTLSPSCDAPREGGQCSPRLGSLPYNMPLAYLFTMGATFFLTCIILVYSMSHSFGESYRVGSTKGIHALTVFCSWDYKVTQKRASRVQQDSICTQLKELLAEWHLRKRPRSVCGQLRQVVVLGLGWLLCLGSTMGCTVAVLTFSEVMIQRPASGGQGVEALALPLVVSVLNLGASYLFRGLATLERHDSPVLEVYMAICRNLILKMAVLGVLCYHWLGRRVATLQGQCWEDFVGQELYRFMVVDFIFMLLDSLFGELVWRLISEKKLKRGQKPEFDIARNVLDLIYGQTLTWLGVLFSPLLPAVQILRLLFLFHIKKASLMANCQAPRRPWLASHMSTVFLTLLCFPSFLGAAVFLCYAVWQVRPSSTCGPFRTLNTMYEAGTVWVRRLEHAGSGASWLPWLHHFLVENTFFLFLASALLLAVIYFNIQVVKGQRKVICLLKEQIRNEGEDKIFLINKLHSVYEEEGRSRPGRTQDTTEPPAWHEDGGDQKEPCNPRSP
As to the kind of experiment: Calcium imaging (YC2.60 FRET) of CHO-K1 cells expressing the mouse TMC6 gene. Type of experiment: cell-based. As to the method:
(§1) CHO-K1 cells were transfected with TMC6-pcDNA3.1 or pcDNA3.1 in combination with YC2.60-pcDNA, to prepare TMC6-expressing cells (cells expressing the mouse TMC6 gene and the YC2.60 gene) and control cells (cells expressing the YC2.60 gene). The prepared cells were stimulated, and activation of the cells was measured. The procedure was as follows.
(§2) That is, first, CHO-K1 cells (ATCC) were inoculated into a culture dish having a diameter of 60 mm while adjusting the number of the cells to obtain 60% confluence, and cultured for 8 hr. As the medium, 5 mL of Ham's F-12K (Kaighn's) (Life Technologies) containing 10% fetal bovine serum (Life Technologies) was used. A 15 μL aliquot of FuGENE 6 (Promega) was added to 235 μL of Opti-MEM (Thermo Fisher Scientific), and incubated for 5 min at a room temperature. Then, 0.625 μg of TMC6-pcDNA3.1 and 2.5 μg of YC2.60-pcDNA were further added thereto, and incubated for 15 min at a room temperature. Then, the whole of the resultant mixture was dropped into the culture broth of the CHO-K1 cells, and the culture broth was mildly stirred. Then, the cells were further cultured for 18 hr under a condition of 5% CO2 at 37° C., to obtain the TMC6-expressing cells. Similarly, the control cells were obtained through transfection using pcDNA3.1 instead of TMC6-pcDNA3.1.
After the cultivation, the culture broth was removed. A low-concentration NaCl solution (27 mM NaCl, 1 mM KCl, 0.4 mM CaCl2, 0.2 mM MgCl2, 2 mM Hepes (pH7.3), 1 mM NaHCO3, 2 mM glucose, 2 mM sodium pyruvate, and 112 mM NMDG-Cl) was added to the culture dish, incubation was carried out statically for 5 min, and then, stimulation and observation of cells were started. First, the low-concentration NaCl solution was perfused for approximately 80 sec, to provide a ground state. Then, a high-concentration NaCl solution (135 mM NaCl, 1 mM KCl, 0.4 mM CaCl2, 0.2 mM MgCl2, 2 mM Hepes (pH7.3), 1 mM NaHCO3, 2 mM glucose, and 2 mM sodium pyruvate) was perfused instead of the low-concentration NaCl solution for approximately 60 sec, to stimulate the cells. […]

In experiment [3] the test system is control cells (CHO-K1 cells expressing YC2.60 gene). As to the kind of experiment: Calcium imaging of control cells (CHO-K1 cells expressing YC2.60 gene only). The following applies: control cells without TMC6, stimulation with high-concentration NaCl solution. It counts as cell-based, Chinese hamster. As to the method: as §1, §2
After the cultivation, the culture broth was removed. […]

The text below walks through data of patent US10175228B2, “Method of using transmembrane channel-like protein 6 (TMC6) protein to identify substances affecting salty taste” (priority 2016, dated 2019).

With `[Cl-].[Na+]` [NaCl, sodium chloride], the NaCl palatability entry in experiment [1] (hetero knockout mouse of the TMC6 gene (Tmc6 +/−), 100 mM NaCl + 30 μM amiloride) was “high”; in experiment [1] (homo knockout mouse of the TMC3 gene (Tmc3 −/−), 100 mM NaCl + 30 μM amiloride), “high”; in experiment [1] (homo knockout mouse of the TMC6 gene (Tmc6 −/−), 100 mM NaCl + 30 μM amiloride, compared with the other subject mice (P<0.05 or P<0.01)), “remarkably reduced”; in experiment [1] (homo knockout mouse of the TMC8 gene (Tmc8 −/−), 100 mM NaCl + 30 μM amiloride), “high”; in experiment [1] (wild-type C57BL/6J mouse, 100 mM NaCl, in the presence of 30 μM amiloride), “remarkable and high”. In addition, in experiment [1] (wild-type C57BL/6J mouse fed D12450B (0.1% sodium), without amiloride), the “palatability for a NaCl aqueous solution” value was “slightly higher than that for water”. In experiment [2] (one typical TMC6-expressing cell, stimulation with high-concentration NaCl solution (135 mM NaCl), FIG. 13C), the “relative FRET value (YFP/CFP) of the ROI-1 cell” value was “approximately 1.2”. In addition, the “change of YFP/CFP value (intracellular calcium concentration, cell activation)” value in experiment [2] (stimulation with high-concentration NaCl solution (135 mM NaCl) for approx. 60 sec after 27 mM NaCl ground state) is reported as “increase”. The “change of YFP/CFP value (intracellular calcium concentration)” value in experiment [3] is “not observed an increase”.
